Source: patent US20120309728A1, “NEW STEROID INHIBITORS OF PGP FOR USE FOR INHIBITING MULTIDRUG RESISTANCE” (priority 2009, published 2012)

Columns and labels:
R7 cells = assay: Intracellular accumulation of daunorubicin measured by flow cytometry; assay type: cell-based, human; details: for Daunorubicin accumulation: daunorubicin 10 μM, compound 10 μM, 1 h at 37° C.
Procedure: The accumulation of daunorubicin in the presence of steroid modulators according to the invention, i.e. compounds having formula (I), was measured by flow cytometry using a reported procedure (G. Comte et al, J. Med. Chem., 44: 763-768, 2001). K562 or R7 cells ([…]) were incubated for 1 h at 37° C. with 1 mL RPMI 1640 medium containing daunorubicin at 10 μM, in the presence or absence of compounds of the invention (10 μM). The cells were then washed twice with ice-cold PBS and kept on ice until analysis by flow cytometry on a FACS-II (Becton-Dickinson Corp., Mountain View, Calif.). Assays were performed in duplicate, in at least three separate experiments.

K562/R7 cells [1] = assay: Cytotoxicity assay using MTT reagent, with doxorubicin plus steroid modulator; assay type: cell-based, human; details: for activity compared with cyclosporine A (in words): comment on Table 2 bis, R7 cells; for Surviving cells R7 cells (% untreated cells): doxorubicin 10^−6M + steroid modulator 10^−6M, 72 h
Procedure: Doxorubicin at 10^−6 M was then added to each well. After incubation for 72 h, 20 μL of MTT reagent (5 mg/mL in PBS buffer) were added to each well and the plate was further incubated for 4 h at 37° C., allowing viable cells to change the yellow MTT into dark-blue formazan crystals. Supernatants were carefully discarded and 100 μL of isopropanol containing 10% HCL 1M were added to dissolve the formazan crystals. Absorbance in each well was determined at 570 nm using a microplate reader (MultisKan EX, Thermo Electron). […] At least three different experiments were performed. Results were expressed as the percentage of surviving cells in each well compared to untreated cells.

K562/R7 cells [2] = assay: Determination of IC50 for cytotoxics ([^3H]thymidine incorporation); details: R7 cells, 24 h treatment
Procedure: After treatment, the number of surviving cells was evaluated by the incorporation of [^3H]thymidine as described above.

COC(=O)CC[C@@H](C)[C@H]1CC[C@H]2[C@@H]3[C@H](OC(=O)c4ccccc4)CC4CC(=O)CC[C@]4(C)[C@H]3C[C@H](OC(=O)c3ccccc3)[C@]12C (stereo partly drawn) [Compound 57, Methyl 3-oxo-7alpha,12alpha-dibenzoyloxycholanate] was tested, and the Daunorubicin accumulation (R7 cells) was 74 ± 1.0 % of the accumulation measured in the presence of cyclosporine A.
For CC(=O)[C@H]1CC[C@H]2[C@H]3[C@H]([C@H](OC(=O)c4ccccc4)C[C@]12C)[C@@]1(C)CCC(=O)C[C@H]1C[C@@H]3OC(=O)c1ccccc1 [Compound 41, 7β,11α-Dibenzoyloxy(5β)pregnane-3,20-dione], the Daunorubicin accumulation (R7 cells) was 73.3 ± 0.5 % of the accumulation measured in the presence of cyclosporine A.
CC(=O)[C@H]1CC[C@H]2[C@@H]3CCC4=CC(=O)CC[C@]4(C)[C@H]3CC[C@]12C [progesterone, reference compound] was tested, and the Daunorubicin accumulation (R7 cells) was 36.27 ± 4.9 % of the accumulation measured in the presence of cyclosporine A.
For CC(=O)C1CCC2C3C([C@H](OC4CCCCO4)C[C@]12C)[C@@]1(C)CCC(=O)C[C@H]1C[C@@H]3OC(=O)c1ccccc1 (stereo partly drawn) [Compound 40, 7β-Benzoyloxy-11α-O-[2′(R)]tetrahydropyranyloxy(5β) pregnane-3,20-dione], the Daunorubicin accumulation (R7 cells) was 89.5 ± 0.5 % of the accumulation measured in the presence of cyclosporine A.
With CC(=O)C1CCC2C3C(CC[C@]12C)[C@@]1(C)CCC(=O)C=C1C[C@@H]3OC1CCCCO1 (stereo partly drawn) [Compound 3, 7beta-O-[2′(R+S)]Tetrahydropyranyloxypregn-4-ene-3,20-dione] the Daunorubicin accumulation (R7 cells) was 108.78 ± 4.27 % of the accumulation measured in the presence of cyclosporine A.
With COC(=O)CC[C@@H](C)[C@H]1CC[C@H]2[C@@H]3[C@H](O[C@H]4CCCCO4)CC4CC(=O)CC[C@]4(C)[C@H]3C[C@H](OC(=O)c3ccccc3)[C@]12C (stereo partly drawn) [Compound 63, methyl 3-oxo-12α-benzoyloxy-7α-O-[2′(S)]tetrahydro-pyranyloxycholanate] the Daunorubicin accumulation (R7 cells) was 104.7 ± 7.0 % of the accumulation measured in the presence of cyclosporine A, the “activity compared with cyclosporine A (in words)” value (K562/R7 cells [1]) was “activity higher than that of the reference compound cyclosporine A” and the “Surviving cells R7 cells (% untreated cells)” value (K562/R7 cells [1]) was 0.7 ± 0.06 % untreated cells.
In the case of CC(=O)[C@@]1(OC2CCCCO2)CCC2C3CC[C@@H]4CC(=O)CC[C@]4(C)C3[C@H](OC3CCCCO3)C[C@@]21C (stereo partly drawn) [Compound 52, 11α,17α-Bis-O-[2′(R),2′(R)]tetrahydropyranyloxy(5β)pregnane-3,20-dione], the “accumulation of daunorubicin compared in words with cyclosporine A or progesterone” value (R7 cells) is reported as “equivalent to that observed with cyclosporine A” and the Daunorubicin accumulation (R7 cells) is reported as 102.01 ± 2.0 % of the accumulation measured in the presence of cyclosporine A.
COC(=O)CC[C@@H](C)[C@H]1CC[C@H]2[C@@H]3[C@H](OC(=O)c4ccccc4)CC4CC(=O)CC[C@]4(C)[C@H]3C[C@H](O[C@H]3CCCCO3)[C@]12C (stereo partly drawn) [Compound 59, Methyl 3-oxo-7α-benzoyloxy-12α-O-[2′(S)]tetrahydropyranyloxycholanate] was tested, and the Daunorubicin accumulation (R7 cells) was 85.8 ± 2.6 % of the accumulation measured in the presence of cyclosporine A and the “Surviving cells R7 cells (% untreated cells)” value (K562/R7 cells [1]) was 1.8 ± 0.1 % untreated cells.
For COCCC[C@@H](C)[C@H]1CC[C@H]2[C@@H]3[C@H](O[C@H]4CCCCO4)CC4CC(=O)CC[C@]4(C)[C@H]3C[C@H](OC(=O)c3ccccc3)[C@]12C (stereo partly drawn) [Compound 73, 3-oxo-12α-benzoyloxy-7α-O-[2′(S)]tetrahydro-pyranyloxy-24-methoxycholane], the Daunorubicin accumulation (R7 cells) was 63.5 ± 5.5 % of the accumulation measured in the presence of cyclosporine A.
With CC(=O)[C@@]1(OC2CCCCO2)CCC2C3CCC4=CC(=O)CC[C@]4(C)C3CC[C@@]21C (stereo partly drawn) [Compound 11, 17alpha-O-[2′(R)]Tetrahydropyranyloxypregn-4-ene-3,20-dione] the Daunorubicin accumulation (R7 cells) was 108.08 ± 6.28 % of the accumulation measured in the presence of cyclosporine A.
For CC(=O)C1CCC2C3C[C@@H](OC(=O)c4ccccc4)[C@@H]4CC(=O)CCC4(C)C3[C@H](OC3CCCCO3)CC12C (mixture of isomers) [Compound 217, 6β-Benzoyloxy-11α-O-[2′(R and S)]tetrahydropyranyloxy(5β)pregnan-3,20-dione], the “Surviving cells R7 cells (% untreated cells)” value (K562/R7 cells [1]) was 5.5 ± 0.4 % untreated cells.
For CC(=O)C1CCC2C3C([C@H](OC4CCCCO4)C[C@]12C)[C@@]1(C)CCC(=O)C[C@H]1C[C@H]3OC(=O)c1ccccc1 (stereo partly drawn) [Compound 32, 7α-Benzoyloxy-11α-O-[2′(S)]tetrahydropyranyloxy (5β)pregnane-3,20-dione], the Daunorubicin accumulation (R7 cells) was 103.88 ± 4.53 % of the accumulation measured in the presence of cyclosporine A.
COCCC[C@@H](C)[C@H]1CC[C@H]2[C@@H]3[C@H](OC(=O)c4ccccc4)CC4CC(=O)CC[C@]4(C)[C@H]3C[C@H](OC(=O)c3ccccc3)[C@]12C (stereo partly drawn) [Compound 71, 3-oxo-7α,12α-dibenzoyloxy-24-methoxycholane] was tested, and the Daunorubicin accumulation (R7 cells) was 50.50 ± 7.5 % of the accumulation measured in the presence of cyclosporine A.
In the case of COc1cc2c(c(OC)c1OC)-c1ccc(OC)c(=O)cc1[C@@H](NC(C)=O)CC2 [colchicine], the “resistance of the cells to the cytotoxic drug (in words)” value (K562/R7 cells [2]) is reported as “resistant”.
With COC(=O)CC[C@@H](C)[C@H]1CC[C@H]2[C@@H]3[C@H](OC(=O)c4ccccc4)CC4CC(=O)CC[C@]4(C)[C@H]3C[C@H](O[C@@H]3CCCCO3)[C@]12C (single isomer, unassigned) [Compound 60] the Daunorubicin accumulation (R7 cells) was 79.8 ± 6.1 % of the accumulation measured in the presence of cyclosporine A and the “Surviving cells R7 cells (% untreated cells)” value (K562/R7 cells [1]) was 2.2 ± 0.3 % untreated cells.
In the case of CC(=O)C1CCC2C3C[C@@H](OC(=O)c4ccccc4)[C@@H]4CC(=O)CCC4(C)C3[C@H](OC3CCCCO3)CC12C (mixture of isomers) [Compound 218, 6β-Benzoyloxy-11α-O-[2′(R and S)]tetrahydropyranyloxy(5β)pregnan-3,20-dione], the “Surviving cells R7 cells (% untreated cells)” value (K562/R7 cells [1]) is reported as 6.2 ± 1.1 % untreated cells.
With CC(=O)[C@H]1CC[C@H]2[C@H]3[C@H]([C@H](O)C[C@]12C)[C@@]1(C)CCC(=O)C[C@H]1C[C@H]3OC1CCCCO1 (stereo partly drawn) [Compound 204, 7α-O-[2′(R+S)]Tetrahydropyranyloxy-11α-hydroxy(5β)pregnane-3,20-dione] the Daunorubicin accumulation (R7 cells) was 87.4 ± 3.5 % of the accumulation measured in the presence of cyclosporine A and the “Surviving cells R7 cells (% untreated cells)” value (K562/R7 cells [1]) was 2.8 ± 0.7 % untreated cells.
For CC(=O)C1CCC2C3CC[C@@H]4CC(=O)CC[C@]4(C)C3[C@H](OC3CCCCO3)C[C@]12C (stereo partly drawn) [Compound 7, 11α-O-[2′(R)]Tetrahydropyranyloxy(5β)pregnane-3,20-dione], the Daunorubicin accumulation (R7 cells) was 103.0 ± 1.86 % of the accumulation measured in the presence of cyclosporine A.
With COC(=O)CC[C@@H](C)C1CCC2C3C[C@H](OC4CCCCO4)[C@@H]4CC(=O)CCC4(C)C3CCC21C (stereo partly drawn) [Compound 210, Methyl 3-oxo-6α-O-[2′(R+S)]tetrahydropyranyloxycholanate] the Daunorubicin accumulation (R7 cells) was 66.7 ± 1.8 % of the accumulation measured in the presence of cyclosporine A and the “Surviving cells R7 cells (% untreated cells)” value (K562/R7 cells [1]) was 4.1 ± 1.1 % untreated cells.
COC(=O)CC[C@@H](C)[C@H]1CC[C@H]2[C@@H]3[C@H](O[C@@H]4CCCCO4)CC4CC(=O)CC[C@]4(C)[C@H]3C[C@H](OC(=O)c3ccccc3)[C@]12C (stereo partly drawn) [Compound 64, methyl 3-oxo-12α-benzoyloxy-7α-O-[2′(R)]tetra-hydropyranyloxycholanate] was tested, and the Daunorubicin accumulation (R7 cells) was 10.0 ± 1.5 % of the accumulation measured in the presence of cyclosporine A, the “activity compared with cyclosporine A (in words)” value (K562/R7 cells [1]) was “activity higher than that of the reference compound cyclosporine A” and the “Surviving cells R7 cells (% untreated cells)” value (K562/R7 cells [1]) was 0.8 ± 0.06 % untreated cells.
In the case of COCCC[C@@H](C)[C@H]1CC[C@H]2[C@@H]3[C@H](O[C@@H]4CCCCO4)CC4CC(=O)CC[C@]4(C)[C@H]3C[C@H](OC(=O)c3ccccc3)[C@]12C (stereo partly drawn) [Compound 74, 3-oxo-12α-benzoyloxy-7α-O-[2′(R)]tetrahydropyranyloxy-24-methoxycholane], the Daunorubicin accumulation (R7 cells) is reported as 68.0 ± 15.0 % of the accumulation measured in the presence of cyclosporine A.
With Cyclosporine A [reference compound] the “Surviving cells R7 cells (% untreated cells)” value (K562/R7 cells [1]) was 1.6 ± 0.5 % untreated cells.
With CC(=O)[C@@]1(O[C@H]2CCCCO2)CC[C@H]2[C@@H]3CC[C@@H]4CC(=O)CC[C@]4(C)[C@H]3[C@H](O[C@H]3CCCCO3)C[C@@]21C [Compound 53, 11α,17α-Bis-O-[2′(S),2′(S)]Tetrahydropyranyloxy(5β)pregnane-3,20-dione] the “accumulation of daunorubicin compared in words with cyclosporine A or progesterone” value (R7 cells) was “equivalent to that observed with cyclosporine A” and the Daunorubicin accumulation (R7 cells) was 107.0 ± 5.0 % of the accumulation measured in the presence of cyclosporine A.
For CC(=O)[C@H]1CC[C@H]2[C@H]3[C@H]([C@H](OC(=O)c4ccccc4)C[C@]12C)[C@@]1(C)CCC(=O)C[C@H]1C[C@H]3OC(=O)c1ccccc1 [Compound 30, 7alpha,11alpha-Di benzoyloxy(5beta)pregnane-3,20-dione], the Daunorubicin accumulation (R7 cells) was 75.39 ± 0.39 % of the accumulation measured in the presence of cyclosporine A.
CC(=O)C1CCC2C3C([C@H](OC4CCCCO4)C[C@]12C)[C@@]1(C)CCC(=O)C[C@H]1C[C@@H]3OC(=O)c1ccccc1 (stereo partly drawn) [Compound 39, 7β-Benzoyloxy-11α-O-[2′(S)]tetrahydropyranyloxy(5β)pregnane-3,20-dione] was tested, and the Daunorubicin accumulation (R7 cells) was 109.0 ± 1.0 % of the accumulation measured in the presence of cyclosporine A.
